{"source": "ChEMBL document CHEMBL1201862", "about": "“PubChem BioAssay data set” (2004)", "experiment_in_all_cases": "NCI anticancer screen, dose series, 48 h", "key": {"786-0": {"tested_on": "786-0"}, "A498": {"tested_on": "A498"}, "A549": {"tested_on": "A549"}, "ACHN": {"tested_on": "ACHN"}, "BT-549": {"tested_on": "BT-549"}, "CAKI-1": {"tested_on": "CAKI-1"}, "CCRF-CEM": {"tested_on": "CCRF-CEM"}, "COLO 205": {"tested_on": "COLO 205"}, "DLD-1": {"tested_on": "DLD-1"}, "DMS-114": {"tested_on": "DMS-114"}, "DMS-273": {"tested_on": "DMS-273"}, "DU-145": {"tested_on": "DU-145"}, "EKVX": {"tested_on": "EKVX"}, "HCC 2998": {"tested_on": "HCC 2998"}, "HCT-116": {"tested_on": "HCT-116"}, "HCT-15": {"tested_on": "HCT-15"}, "HL-60": {"tested_on": "HL-60"}, "HOP-18": {"tested_on": "HOP-18"}, "HOP-62": {"tested_on": "HOP-62"}, "HOP-92": {"tested_on": "HOP-92"}, "HT-29": {"tested_on": "HT-29"}, "Hs-578T": {"tested_on": "Hs-578T"}, "IGROV-1": {"tested_on": "IGROV-1"}, "K562": {"tested_on": "K562"}, "KM-20L2": {"tested_on": "KM-20L2"}, "KM12": {"tested_on": "KM12"}, "LOX IMVI": {"tested_on": "LOX IMVI"}, "LXFL 529": {"tested_on": "LXFL 529"}, "M14": {"tested_on": "M14"}, "M19-MEL": {"tested_on": "M19-MEL"}, "MCF7": {"tested_on": "MCF7"}, "MDA-MB-231": {"tested_on": "MDA-MB-231"}, "MDA-MB-435": {"tested_on": "MDA-MB-435"}, "MDA-N": {"tested_on": "MDA-N"}, "MOLT-4": {"tested_on": "MOLT-4"}, "Malme-3M": {"tested_on": "Malme-3M"}, "NCI-H226": {"tested_on": "NCI-H226"}, "NCI-H23": {"tested_on": "NCI-H23"}, "NCI-H460": {"tested_on": "NCI-H460"}, "NCI-H522": {"tested_on": "NCI-H522"}, "NCI/ADR-RES": {"tested_on": "NCI/ADR-RES"}, "OVCAR-3": {"tested_on": "OVCAR-3"}, "OVCAR-4": {"tested_on": "OVCAR-4"}, "OVCAR-5": {"tested_on": "OVCAR-5"}, "OVCAR-8": {"tested_on": "OVCAR-8"}, "PC-3": {"tested_on": "PC-3"}, "RPMI-8226": {"tested_on": "RPMI-8226"}, "RXF 393": {"tested_on": "RXF 393"}, "SF-268": {"tested_on": "SF-268"}, "SF-295": {"tested_on": "SF-295"}, "SF-539": {"tested_on": "SF-539"}, "SK-MEL-28": {"tested_on": "SK-MEL-28"}, "SK-MEL-2": {"tested_on": "SK-MEL-2"}, "SK-MEL-5": {"tested_on": "SK-MEL-5"}, "SK-OV-3": {"tested_on": "SK-OV-3"}, "SN12C": {"tested_on": "SN12C"}, "SNB-19": {"tested_on": "SNB-19"}, "SNB-75": {"tested_on": "SNB-75"}, "SNB-78": {"tested_on": "SNB-78"}, "SW-620": {"tested_on": "SW-620"}, "T47D": {"tested_on": "T47D"}, "TK-10": {"tested_on": "TK-10"}, "U-251": {"tested_on": "U-251"}, "UACC-257": {"tested_on": "UACC-257"}, "UACC-62": {"tested_on": "UACC-62"}, "UO-31": {"tested_on": "UO-31"}, "XF498": {"tested_on": "XF498"}}, "note": "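Growth conditions: 96-well plates. Treatment: test compound, 48 hours, 5 concentrations. Analysis: linear interpolation between bracketing concentrations; unreached endpoints set to highest concentration. Here, GI50 denotes the concentration required for 50% inhibition of growth.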 Active and inactive are the calls of the source. Rule as the data show it: active = GI50 up to about 1.1 µM and inactive = higher."}
{"smiles": "C[N+](C)(C)CCC(=O)N1C/C(=C\\c2ccccc2)C(=O)/C(=C/c2ccccc2)C1", "values": [{"measurement": "GI50", "setting": "786-0", "value": "2.38 µM (inactive)"}, {"measurement": "GI50", "setting": "A498", "value": "20.7 µM (inactive)"}, {"measurement": "GI50", "setting": "A549", "value": "14.7 µM (inactive)"}, {"measurement": "GI50", "setting": "ACHN", "value": "6.3 µM (inactive)"}, {"measurement": "GI50", "setting": "BT-549", "value": "2.33 µM (inactive)"}, {"measurement": "GI50", "setting": "CAKI-1", "value": "6.49 µM (inactive)"}, {"measurement": "GI50", "setting": "CCRF-CEM", "value": "1.64 µM (inactive)"}, {"measurement": "GI50", "setting": "COLO 205", "value": "3.47 µM (inactive)"}, {"measurement": "GI50", "setting": "DLD-1", "value": "2.2 µM (inactive)"}, {"measurement": "GI50", "setting": "DMS-114", "value": "5.98 µM (inactive)"}, {"measurement": "GI50", "setting": "DMS-273", "value": "2.19 µM (inactive)"}, {"measurement": "GI50", "setting": "DU-145", "value": "16.8 µM (inactive)"}, {"measurement": "GI50", "setting": "EKVX", "value": "21.4 µM (inactive)"}, {"measurement": "GI50", "setting": "HCC 2998", "value": "3.47 µM (inactive)"}, {"measurement": "GI50", "setting": "HCT-116", "value": "1.53 µM (inactive)"}, {"measurement": "GI50", "setting": "HCT-15", "value": 2.47, "unit": "µM"}, {"measurement": "GI50", "setting": "HL-60", "value": "2.27 µM (inactive)"}, {"measurement": "GI50", "setting": "HOP-18", "value": "12.2 µM (inactive)"}, {"measurement": "GI50", "setting": "HOP-62", "value": "18.1 µM (inactive)"}, {"measurement": "GI50", "setting": "HOP-92", "value": "20.6 µM (inactive)"}, {"measurement": "GI50", "setting": "HT-29", "value": "2.79 µM (inactive)"}, {"measurement": "GI50", "setting": "Hs-578T", "value": "4.31 µM (inactive)"}, {"measurement": "GI50", "setting": "IGROV-1", "value": "5.12 µM (inactive)"}, {"measurement": "GI50", "setting": "K562", "value": "1.21 µM (inactive)"}, {"measurement": "GI50", "setting": "KM-20L2", "value": "8 µM (inactive)"}, {"measurement": "GI50", "setting": "KM12", "value": "1.6 µM (inactive)"}, {"measurement": "GI50", "setting": "LOX IMVI", "value": "1.7 µM (inactive)"}, {"measurement": "GI50", "setting": "LXFL 529", "value": "3.78 µM (inactive)"}, {"measurement": "GI50", "setting": "M14", "value": "2.72 µM (inactive)"}, {"measurement": "GI50", "setting": "M19-MEL", "value": "4.81 µM (inactive)"}, {"measurement": "GI50", "setting": "MCF7", "value": "1.45 µM (inactive)"}, {"measurement": "GI50", "setting": "MDA-MB-231", "value": "3.22 µM (inactive)"}, {"measurement": "GI50", "setting": "MDA-MB-435", "value": "2.29 µM (inactive)"}, {"measurement": "GI50", "setting": "MDA-N", "value": "1.9 µM (inactive)"}, {"measurement": "GI50", "setting": "MOLT-4", "value": "2.45 µM (inactive)"}, {"measurement": "GI50", "setting": "Malme-3M", "value": "15.4 µM (inactive)"}, {"measurement": "GI50", "setting": "NCI-H226", "value": "10 µM (inactive)"}, {"measurement": "GI50", "setting": "NCI-H23", "value": "10.4 µM (inactive)"}, {"measurement": "GI50", "setting": "NCI-H460", "value": "7.87 µM (inactive)"}, {"measurement": "GI50", "setting": "NCI-H522", "value": "2.25 µM (inactive)"}, {"measurement": "GI50", "setting": "NCI/ADR-RES", "value": "1.64 µM (inactive)"}, {"measurement": "GI50", "setting": "OVCAR-3", "value": "3.82 µM (inactive)"}, {"measurement": "GI50", "setting": "OVCAR-4", "value": "3.37 µM (inactive)"}, {"measurement": "GI50", "setting": "OVCAR-5", "value": "16.9 µM (inactive)"}, {"measurement": "GI50", "setting": "OVCAR-8", "value": "3.52 µM (inactive)"}, {"measurement": "GI50", "setting": "PC-3", "value": "2.49 µM (inactive)"}, {"measurement": "GI50", "setting": "RPMI-8226", "value": "0.385 µM (active)"}, {"measurement": "GI50", "setting": "RXF 393", "value": "11.8 µM (inactive)"}, {"measurement": "GI50", "setting": "SF-268", "value": "5.14 µM (inactive)"}, {"measurement": "GI50", "setting": "SF-295", "value": "3.78 µM (inactive)"}, {"measurement": "GI50", "setting": "SF-539", "value": "5.06 µM (inactive)"}, {"measurement": "GI50", "setting": "SK-MEL-28", "value": "8.05 µM (inactive)"}, {"measurement": "GI50", "setting": "SK-MEL-2", "value": "15.8 µM (inactive)"}, {"measurement": "GI50", "setting": "SK-MEL-5", "value": "9.95 µM (inactive)"}, {"measurement": "GI50", "setting": "SK-OV-3", "value": "23.7 µM (inactive)"}, {"measurement": "GI50", "setting": "SN12C", "value": "2.08 µM (inactive)"}, {"measurement": "GI50", "setting": "SNB-19", "value": "5.38 µM (inactive)"}, {"measurement": "GI50", "setting": "SNB-75", "value": "7.83 µM (inactive)"}, {"measurement": "GI50", "setting": "SNB-78", "value": "6.65 µM (inactive)"}, {"measurement": "GI50", "setting": "SW-620", "value": "0.904 µM (active)"}, {"measurement": "GI50", "setting": "T47D", "value": "2.09 µM (inactive)"}, {"measurement": "GI50", "setting": "TK-10", "value": "14.4 µM (inactive)"}, {"measurement": "GI50", "setting": "U-251", "value": "3.03 µM (inactive)"}, {"measurement": "GI50", "setting": "UACC-257", "value": "12.2 µM (inactive)"}, {"measurement": "GI50", "setting": "UACC-62", "value": "3.58 µM (inactive)"}, {"measurement": "GI50", "setting": "UO-31", "value": "18.9 µM (inactive)"}, {"measurement": "GI50", "setting": "XF498", "value": "14.5 µM (inactive)"}]}
